From patent publication US9902726B2, “Pyridone-sulfone morphinan analogs as opioid receptor ligands” (Purdue Pharma L.P., priority 2013, dated 2018)

Experiments:
μ-opioid receptor [1] = molecular target: T1, μ-opioid receptor (Homo sapiens (Human), UniProt P35372); assay: μ-opioid receptor [35S]GTPγS functional assay, U-2 OS cells; type: biochemical; conditions: for Emax: U-2 OS cells, relative to DAMGO
Method: (§1) μ-Opioid Receptor Functional Assay Procedures: [^35S]GTPγS functional assays were conducted using freshly thawed μ-receptor membranes prepared in-house from a cell line expressing recombinant μ opioid receptor in a HEK-293, CHO, or U-2 OS cell background or purchased from a commercial source (Perkin Elmer, Shelton, Conn.). Assay reactions were prepared by sequentially adding the following reagents to binding buffer (100 mM NaCl, 10 mM MgCl2, 20 mM HEPES, pH 7.4) on ice (final concentrations indicated): membrane protein (0.026 mg/mL), saponin ([…]), GDP ([…]) and [^35S]GTPγS (0.20 nM; Perkin Elmer, Shelton, Conn.). The prepared membrane solution (190 μl/well) was transferred to 96-shallow well polypropylene plates containing 10 μl of 20× concentrated stock solutions of the agonist [D-Ala^2, N-methyl-Phe^4 Gly-ol^5]-enkephalin (DAMGO) prepared in dimethyl sulfoxide (DMSO). Plates were incubated for 30 min at about 25° C. with shaking. […] Data were analyzed using the sigmoidal dose-response curve fitting functions in GraphPad PRISM v. 3.0, or an in-house function for non-linear, sigmoidal dose-response curve-fitting. [^35S]GTPγS functional assays can also be conducted using freshly thawed μ-receptor membranes prepared from a cell line expressing recombinant opioid receptor in a CHO-K1 cell background.
(§2) μ-Opioid Receptor Functional Data: μ GTP EC50 is the concentration of a compound providing 50% of the maximal response for the compound at a μ-opioid receptor.
(§3) μ GTP Emax (%) is the maximal effect elicited by a compound relative to the effect elicited by DAMGO, a standard μ agonist. Generally, the μ GTP Emax (%) value measures the efficacy of a compound to treat or prevent pain or other Conditions.

μ-opioid receptor [2] = molecular target: T1, μ-opioid receptor; assay: μ-opioid receptor [35S]GTPγS functional assay, HEK-293 or CHO cells; type: biochemical; conditions: for Emax: HEK-293 or CHO cells, relative to DAMGO
Method: as §1, §2, §3

μ-opioid receptor [3] = molecular target: T1, μ-opioid receptor; assay: μ-opioid receptor radioligand dose-displacement binding assay ([3H]-diprenorphine)
Method: Radioligand dose-displacement binding assays for μ-opioid receptors used 0.3 nM [^3H]-diprenorphine (Perkin Elmer, Shelton, Conn.), with 5 mg membrane protein/well in a final volume of 500 μl binding buffer (10 mM MgCl2, 1 mM EDTA, 5% DMSO, 50 mM HEPES, pH 7.4). Reactions were carried out in the absence or presence of increasing concentrations of unlabeled naloxone. All reactions were conducted in 96-deep well polypropylene plates for 2 hours at room temperature. Binding reactions were terminated by rapid filtration onto 96-well Unifilter GF/C filter plates (Perkin Elmer, Shelton, Conn.), presoaked in 0.5% polyethylenimine using a 96-well tissue harvester (Perkin Elmer, Shelton, Conn.) followed by performing three filtration washes with 500 μl of ice-cold binding buffer. Filter plates were subsequently dried at 50° C. for 2-3 hours. BetaScint scintillation cocktail (Perkin Elmer, Shelton, Conn.) was added (50 μl/well), and plates were counted using a Packard Top-Count for 1 min/well. The data were analyzed using the one-site competition curve fitting functions in GraphPad PRISM™ v.

[4] = molecular target: recombinant human kappa opioid receptor (κ) (Homo sapiens (Human), UniProt P41145); assay: κ-opioid receptor radioligand dose-displacement binding assay ([3H]-U69,593)
Method: κ-Opioid Receptor Binding Assay Procedures: Membranes from HEK-293 cells, CHO cells, or U-2 OS cells expressing the recombinant human kappa opioid receptor (κ) were prepared by lysing cells in ice cold hypotonic buffer (2.5 mM MgCl2, 50 mM HEPES, pH 7.4) (10 mL/10 cm dish) followed by homogenization with a tissue grinder/Teflon pestle. Membranes from a cell line naturally expressing kappa opioid receptor can also be used. Membranes were collected by centrifugation at 30,000×g for 15 min at 4° C. and pellets were resuspended in hypotonic buffer to a final concentration of 1-3 mg/mL. Protein concentrations were determined using the BioRad protein assay reagent with bovine serum albumen as standard. Aliquots of κ receptor membranes were stored at −80° C.
Radioligand dose displacement assays used 0.4 nM [^3H]-U69,593 (GE Healthcare, Piscataway, N.J.; 40 Ci/mmole) with 15 μg membrane protein (recombinant κ opioid receptor expressed in HEK 293 cells; in-house prep) in a final volume of 200 μl binding buffer (5% DMSO, 50 mM Trizma base, pH 7.4). Non-specific binding was determined in the presence of 10 μM unlabeled naloxone or U69,593. All reactions were performed in 96-well polypropylene plates for 1 hour at a temperature of about 25° C.

κ opioid receptor [5] = molecular target: T2, κ opioid receptor (Homo sapiens (Human), UniProt P41145); assay: κ-opioid receptor [35S]GTPγS functional assay, HEK-293 or CHO cells; type: biochemical; conditions: for Emax: HEK-293 or CHO cells, relative to U69,593
Method: (§4) κ-Opioid Receptor Functional Assay Procedures: Functional [^35S]GTPγS binding assays were conducted as follows. κ opioid receptor membrane solution was prepared by sequentially adding final concentrations of 0.026 μg/μl κ membrane protein (in-house), 10 μg/mL saponin, 3 μM GDP and 0.20 nM [^35S]GTPγS to binding buffer (100 mM NaCl, 10 mM MgCl2, 20 mM HEPES, pH 7.4) on ice. The prepared membrane solution (190 μl/well) was transferred to 96-shallow well polypropylene plates containing 10 μl of 20× concentrated stock solutions of agonist prepared in DMSO. Plates were incubated for 30 min at a temperature of about 25° C. with shaking.
(§5) κ-Opioid Receptor Functional Data: κ GTP EC50 is the concentration of a compound providing 50% of the maximal response for the compound at a κ receptor.
(§6) κ GTP Emax (%) is the maximal effect elicited by a compound relative to the effect elicited by U69,593.

κ opioid receptor [6] = molecular target: T2, κ opioid receptor; assay: κ-opioid receptor [35S]GTPγS functional assay, U-2 OS cells; type: biochemical; conditions: for Emax: U-2 OS cells, relative to U69,593
Method: as §4, §5, §6

Row | SMILES | EC50 (μ-opioid receptor [1]) | Emax (μ-opioid receptor [1]) | EC50 (μ-opioid receptor [2]) | Emax (μ-opioid receptor [2]) | Ki (μ-opioid receptor [3]) | Ki [4] | EC50 (κ opioid receptor [5]) | Emax (κ opioid receptor [5]) | EC50 (κ opioid receptor [6]) | Emax (κ opioid receptor [6])
1 | CS(=O)(=O)c1cc2c([nH]c1=O)C[C@]13CCN(CC4CC4)[C@H](Cc4ccc(O)cc41)[C@]3(O)C2 [Compound 5, (6R,6aS,12aR)-15-(cyclopropylmethyl)-2,6a-dihydroxy-9-(methylsulfonyl)-6a,7,11,12-tetrahydro-5H-6,12a-(epiminoethano)naphtho[2,1-g]quinolin-10(6H)-one] | > 20000 nM | 2% | > 20000 nM | 1% | 0.76 ± 0.13 nM | 0.36 ± 0.091 nM | 1.27 ± 0.3 nM | 10.3 ± 0.67% | 0.85 ± 0.075 nM | 55.7 ± 2.4%
2 | O=c1[nH]c2c(cc1S(=O)(=O)c1ccccc1)C[C@@]1(O)[C@H]3Cc4ccc(O)cc4[C@@]1(CCN3CC1CC1)C2 [Compound 6, (6R,6aS,12aR)-15-(cyclopropylmethyl)-2,6a-dihydroxy-9-(phenylsulfonyl)-6a,7,11,12-tetrahydro-5H-6,12a-(epiminoethano)naphtho[2,1-g]quinolin-10(6H)-one] | > 20000 nM | 2% | – | – | – | – | – | – | 0.26 ± 0.055 nM | 33.2 ± 2.84%
3 | CN1CC[C@]23Cc4[nH]c(=O)c(S(C)(=O)=O)cc4C[C@@]2(O)[C@H]1Cc1ccc(O)cc13 [Compound 7, (6R,6aS,12aR)-2,6a-dihydroxy-15-methyl-9-(methylsulfonyl)-6a,7,11,12-tetrahydro-5H-6,12a-(epiminoethano)naphtho[2,1-g]quinolin-10(6H)-one] | 148 ± 6.21 nM | 68 ± 1.15% | – | – | – | – | – | – | 203 ± 47.7 nM | 71.3 ± 3.33%
4 | CN1CC[C@]23Cc4[nH]c(=O)c(S(=O)(=O)c5ccccc5)cc4C[C@@]2(O)[C@H]1Cc1ccc(O)cc13 [Compound 8, (6R,6aS,12aR)-2,6a-dihydroxy-15-methyl-9-(phenylsulfonyl)-6a,7,11,12-tetrahydro-5H-6,12a-(epiminoethano)naphtho[2,1-g]quinolin-10(6H)-one] | 77.5 ± 10.9 nM | 61.7 ± 1.67% | – | – | – | 19.5 ± 2.69 nM | – | – | 35.8 ± 3.77 nM | 82.3 ± 3.67%
5 | CS(=O)(=O)c1cc2c([nH]c1=O)C[C@]13CCN(CC4CC4)[C@H](Cc4ccc(O)cc41)[C@@H]3C2 [Compound 9, (6R,6aR,12aS)-15-(cyclopropylmethyl)-2-hydroxy-9-(methylsulfonyl)-6a,7,11,12-tetrahydro-5H-6,12a-(epiminoethano)naphtho[2,1-g]quinolin-10(6H)-one] | – | – | > 20000 nM | 2.5% | – | – | – | – | – | –
6 | O=c1[nH]c2c(cc1S(=O)(=O)c1ccccc1)C[C@H]1[C@H]3Cc4ccc(O)cc4[C@@]1(CCN3CC1CC1)C2 [Compound 10, (6R,6aR,12aS)-15-(cyclopropylmethyl)-2-hydroxy-9-(phenylsulfonyl)-6a,7,11,12-tetrahydro-5H-6,12a-(epiminoethano)naphtho[2,1-g]quinolin-10(6H)-one] | – | – | > 20000 nM | 2% | – | – | – | – | – | –
7 | CN1CC[C@]23Cc4[nH]c(=O)c(S(C)(=O)=O)cc4C[C@H]2[C@H]1Cc1ccc(O)cc13 [Compound 11, (6R,6aR,12aS)-2-hydroxy-15-methyl-9-(methylsulfonyl)-6,6a,7,12-tetrahydro-5H-6,12a-(epiminoethano)naphtho[2,1-g]quinolin-10(11H)-one] | – | – | 259 ± 53.5 nM | 20.7 ± 1.76% | – | 13.1 ± 2.27 nM | 107 ± 28.7 nM | 16.7 ± 1.21% | – | –
8 | CN1CC[C@]23Cc4[nH]c(=O)c(S(=O)(=O)c5ccccc5)cc4C[C@H]2[C@H]1Cc1ccc(O)cc13 [Compound 12, (6R,6aR,12aS)-2-hydroxy-15-methyl-9-(phenylsulfonyl)-6,6a,7,12-tetrahydro-5H-6,12a-(epiminoethano)naphtho[2,1-g]quinolin-10(11H)-one] | – | – | 83.1 ± 24.1 nM | 19.8 ± 2.63% | – | 2.78 ± 0.75 nM | 17.2 ± 4.22 nM | 17.2 ± 1.04% | – | –
